We go through 22 molecules from patent publication US20240025922A1, “TETRAHYDROPYRIDO[3,4-d]PYRIMIDINES AS HPK1 INHIBITORS” (Merck Patent GmbH, priority 2022, published 2024).

The target in experiment [1] is HPK1 (SLP76 phosphorylation at Ser376 in Jurkat and EL-4 cells) (Homo sapiens, UniProt Q92918). In kind it is cell-based. In a few lines:
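Jurkat (human) and EL-4 (mouse) cells, endogenous HPK1/SLP76, preincubated 60 min with compounds (10-point dilution), then stimulated with αCD3/αCD28 beads at 37 °C: 15 min for Jurkat, 30 min for EL-4. Ser376 pSLP76 in lysates read by AlphaLISA (Jurkat) or HTRF (EL-4); % inhibition and IC50 fitted.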

In experiment [2] the target is full-length human HPK1 (MAP4K1) (Homo sapiens (Human), UniProt Q92918). Kind of experiment: HPK1 Kinase Assay (Biochemical Assay), ADP-Glo. The following applies: GST-HPK1 3.2 nM, 10 μM ATP, MBP substrate, read-out: HPK1 enzymatic IC50. In short, it runs like this: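 GST-tagged full-length human HPK1 was expressed in Sf21 cells and used at 3.2 nM in 50 mM HEPES pH 7.5, 10 mM MgCl2, 2 mM DTT, 12.5 mM O-glycerophosphate, 0.01% BSA and 0.02% Brij-35. It was preincubated 15 min with 10-point compound dilutions, and the reaction was started with a start mix of 10 μM ATP and 3.235 μM MBP. After 120 min, ADP was measured by ADP-Glo luminescence and IC50 derived.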
Chain of full-length human HPK1 (MAP4K1) (Q92918 whole entry): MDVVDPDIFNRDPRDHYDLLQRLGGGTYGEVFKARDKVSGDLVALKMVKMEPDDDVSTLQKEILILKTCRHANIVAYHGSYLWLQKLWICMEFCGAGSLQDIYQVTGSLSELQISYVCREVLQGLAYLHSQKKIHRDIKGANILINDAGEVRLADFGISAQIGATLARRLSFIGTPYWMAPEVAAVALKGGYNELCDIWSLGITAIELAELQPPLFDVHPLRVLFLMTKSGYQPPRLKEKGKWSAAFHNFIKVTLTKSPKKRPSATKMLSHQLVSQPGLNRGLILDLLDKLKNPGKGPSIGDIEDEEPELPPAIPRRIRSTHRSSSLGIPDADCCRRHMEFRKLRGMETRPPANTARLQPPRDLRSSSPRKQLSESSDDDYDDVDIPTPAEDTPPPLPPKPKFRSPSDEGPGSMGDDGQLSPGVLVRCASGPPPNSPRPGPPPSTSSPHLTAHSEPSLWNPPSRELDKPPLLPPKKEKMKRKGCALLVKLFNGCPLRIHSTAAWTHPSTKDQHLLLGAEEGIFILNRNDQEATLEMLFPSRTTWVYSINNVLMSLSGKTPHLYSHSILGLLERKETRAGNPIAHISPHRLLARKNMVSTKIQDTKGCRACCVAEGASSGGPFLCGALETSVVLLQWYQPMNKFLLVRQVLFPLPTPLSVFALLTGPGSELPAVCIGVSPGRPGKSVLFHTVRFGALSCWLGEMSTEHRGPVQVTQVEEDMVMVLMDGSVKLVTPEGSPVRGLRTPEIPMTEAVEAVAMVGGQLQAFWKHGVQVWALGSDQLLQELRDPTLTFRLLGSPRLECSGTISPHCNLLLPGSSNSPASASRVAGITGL
A general note: In ADP-Glo the light output rises with the ADP produced.

Setting [3] is: αCD3/αCD28 Dynabeads stimulated cells, pSLP76 (Ser376) detection; read-out: HPK1 pSLP76 IC50.
[4] abbreviates: read-out: HPK1 pSLP76 IC50; αCD3/αCD28 Dynabeads stimulated cells, pSLP76 (Ser376) detection.

SMILES strings stand for the structures. Where two headings read alike, the source gives them in different places.

Chain of HPK1 (SLP76 phosphorylation at Ser376 in Jurkat and EL-4 cells) (Q92918 whole entry, looked up): as the sequence (Q92918 whole entry) above

For the molecule `Cc1c(N2CCc3cnc(Nc4cccc(S(C)(=O)=O)c4)nc3C2)cnc2c1NCCO2` [Example 79, 7-(8-methyl-2,3-dihydro-1H-pyrido[2,3-b][1,4]oxazin-7-yl)-N-(3-(methylsulfonyl)phenyl)-5,6,7,8-tetrahydropyrido[3,4-d]pyrimidin-2-amine], the IC50 (usually the concentration at which inhibition is half-maximal) in experiment [1] (setting [3]) is < 500 nM; in experiment [2] it was < 100 nM.

Regarding `Cc1c(N2CCc3cnc(Nc4ccc5c(c4)CN(C)C5=O)nc3C2)cnc2c1NCCO2` [Example 96, 2-methyl-5-((7-(8-methyl-2,3-dihydro-1H-pyrido[2,3-b][1,4]oxazin-7-yl)-5,6,7,8-tetrahydropyrido[3,4-d]pyrimidin-2-yl)amino)isoindolin-1-one], the IC50 is > 1000 nM in experiment [1] (setting [4]) and < 100 nM in experiment [2].

For the molecule `Cc1c(N2CCc3cnc(Nc4ccc(CC(=O)N5CC(OC(C)C)C5)cc4)nc3C2)cnc2c1NCCO2` [Example 174, 2-{4-[(7-{8-methyl-1H,2H,3H-pyrido[2,3-b][1,4]oxazin-7-yl}-5H,6H,7H,8H-pyrido[3,4-d]pyrimidin-2-yl)amino]phenyl}-1-[3-(propan-2-yloxy)azetidin-1-yl]ethan-1-one], the IC50 in experiment [1] (setting [3]) is < 500 nM; in experiment [2], < 100 nM.

For the molecule `Cc1c(N2CCc3cnc(Nc4ccc(NC(=O)CN(C)C)nc4)cc3C2)cnc2c1NCCO2` [Example 31, 2-(dimethylamino)-N-{5-[(6-{8-methyl-1H,2H,3H-pyrido[2,3-b][1,4]oxazin-7-yl}-5,6,7,8-tetrahydro-2,6-naphthyridin-3-yl)amino]pyridin-2-yl}acetamide], the IC50 in experiment [1] (setting [3]) was > 1000 nM; in experiment [2], < 100 nM.

With `Cc1cc(Nc2cc3c(cn2)CCN(c2cnc4c(c2Cl)NCCO4)C3)ccc1NC(=O)CN1CCC1` [Example 2, 2-(azetidin-1-yl)-N-{4-[(6-{8-chloro-1H,2H,3H-pyrido[2,3-b][1,4]oxazin-7-yl}-5,6,7,8-tetrahydro-2,6-naphthyridin-3-yl)amino]-2-methylphenyl}acetamide], the IC50 is < 500 nM in experiment [1] (setting [3]) and < 100 nM in experiment [2].

Consider `Cc1c(N2CCc3cnc(Nc4ccc(C(=O)N5CC[C@@H](N(C)C)C5)cc4)nc3C2)cnc2c1NCCO2` [Example 42, (3R)—N,N-dimethyl-1-{4-[(7-{8-methyl-1H,2H,3H-pyrido[2,3-b][1,4]oxazin-7-yl} 5H,6H,7H,8H-pyrido[3,4-d]pyrimidin-2-yl)amino]benzoyl}pyrrolidin-3-amine], for which the figures for the IC50 in experiment [1] (setting [3]) and in experiment [2] were < 500 nM and < 100 nM, respectively.

In the case of `Cc1c(N2CCc3cnc(Nc4cccc(CN5CCOCC5)c4)nc3C2)cnc2c1NCCO2` [Example 60, 7-{8-methyl-1H,2H,3H-pyrido[2,3-b][1,4]oxazin-7-yl}-N-{3-[(morpholin-4-yl)methyl]phenyl}-5H,6H,7H,8H-pyrido[3,4-d]pyrimidin-2-amine], the IC50 in experiment [1] (setting [4]) was 500 to 1000 nM; in experiment [2], < 100 nM.

As for `Cc1c(N2CCc3cnc(Nc4cnc5c(c4)CN(C)CC5)nc3C2)cnc2c1NCCO2` [Example 115, 7-(8-methyl-2,3-dihydro-1H-pyrido[2,3-b][1,4]oxazin-7-yl)-N-(6-methyl-5,6,7,8-tetrahydro-1,6-naphthyridin-3-yl)-5,6,7,8-tetrahydropyrido[3,4-d]pyrimidin-2-amine], the IC50 in experiment [1] (setting [3]) was 500 to 1000 nM; in experiment [2], < 100 nM.

As to `Cc1c(N2CCc3cnc(Nc4ccc(S(C)(=O)=O)cc4)nc3C2)cnc2c1NCCO2` [Example 24, N-(4-methanesulfonylphenyl)-7-{8-methyl-1H,2H,3H-pyrido[2,3-b][1,4]oxazin-7-yl}-5H,6H,7H,8H-pyrido[3,4-d]pyrimidin-2-amine], the IC50 in experiment [1] (setting [3]) was 500 to 1000 nM; in experiment [2], < 100 nM.

Regarding `Cc1c(N2CCc3cnc(Nc4ccc(CN5CCCC5)cc4)nc3C2)cnc2c1NCCO2` [Example 125, 7-{8-methyl-1H,2H,3H-pyrido[2,3-b][1,4]oxazin-7-yl}-N-{4-[(pyrrolidin-1-yl)methyl]phenyl}-5H,6H,7H,8H-pyrido[3,4-d]pyrimidin-2-amine], the IC50 was > 1000 nM in experiment [1] (setting [3]) and < 100 nM in experiment [2].

Take `COC1CCN(c2ccc(Nc3ncc4c(n3)CN(c3cnc5c(c3C)NCCO5)CC4)cc2)CC1` [Example 113, N-(4-(4-methoxypiperidin-1-yl)phenyl)-7-(8-methyl-2,3-dihydro-1H-pyrido[2,3-b][1,4]oxazin-7-yl)-5,6,7,8-tetrahydropyrido[3,4-d]pyrimidin-2-amine]: the IC50 was 500 to 1000 nM in experiment [1] (setting [3]) and < 100 nM in experiment [2].

As for `Cc1c(N2CCc3cnc(Nc4ccc(CN5CCOC5=O)cc4)nc3C2)cnc2c1NCCO2` [Example 188, 3-({4-[(7-{8-methyl-1H,2H,3H-pyrido[2,3-b][1,4]oxazin-7-yl}-5H,6H,7H,8H-pyrido[3,4-d]pyrimidin-2-yl)amino]phenyl}methyl)-1,3-oxazolidin-2-one], the IC50 in experiment [1] (setting [3]) is < 500 nM; in experiment [2] it was < 100 nM.

For the molecule `Cc1cc(Nc2ncc3c(n2)CN(c2cnc4c(c2C)NCCO4)CC3)ccc1C(=O)N1CC(N(C)C)C1` [Example 38, N,N-dimethyl-1-{2-methyl-4-[(7-{8-methyl-1H,2H,3H-pyrido[2,3-b][1,4]oxazin-7-yl}-5H,6H,7H,8H-pyrido[3,4-d]pyrimidin-2yl)amino]benzoyl}azetidin-3-amin], the IC50 is > 1000 nM in experiment [1] (setting [3]) and < 100 nM in experiment [2].

As for `Cc1cnsc1N1CCc2cnc(Nc3cnc4c(c3)CN(C)CC4)nc2C1` [Example 119, N-(6-methyl-5,6,7,8-tetrahydro-1,6-naphthyridin-3-yl)-7-(4-methylisothiazol-5-yl)-5,6,7,8-tetrahydropyrido[3,4-d]pyrimidin-2-amine], the IC50 in experiment [1] (setting [3]) was > 1000 nM; in experiment [2], < 100 nM.

In the case of `Cc1c(N2CCc3cnc(Nc4ccc(CS(C)(=O)=O)c(F)c4)nc3C2)cnc2c1NCCO2` [Example 190, N-[3-fluoro-4-(methanesulfonylmethyl)phenyl]-7-{8-methyl-1H,2H,3H-pyrido[2,3-b][1,4]oxazin-7-yl}-5H,6H,7H,8H-pyrido[3,4-d]pyrimidin-2-amine], the values for the IC50 in experiment [1] (setting [3]) and in experiment [2] were < 500 nM and < 100 nM, respectively.

With `Cc1c(N2CCc3cnc(Nc4ccc(N5CCC(OC(F)(F)F)CC5)cc4)nc3C2)cnc2c1NCCO2` [Example 103, 7-(8-methyl-2,3-dihydro-1H-pyrido[2,3-b][1,4]oxazin-7-yl)-N-(4-(4-(trifluoromethoxy)piperidin-1-yl)phenyl)-5,6,7,8-tetrahydropyrido[3,4-d]pyrimidin-2-amine], the IC50 in experiment [1] (setting [4]) is > 1000 nM; in experiment [2], < 100 nM.

On to `CN1CCc2cc(Nc3cc4c(cn3)CCN(c3cnc5c(c3Cl)NCCO5)C4)nn2CC1=O` [Example 37, 2-[(6-{8-chloro-1H,2H,3H-pyrido[2,3-b][1,4]oxazin-7-yl}-5,6,7,8-tetrahydro-2,6-naphthyridin-3-yl)amino]-6-methyl-4H,5H,6H,7H,8H-pyrazolo[1,5-d][1,4]diazepin-7-one], for which the results for the IC50 in experiment [1] (setting [3]) and in experiment [2] were 500 to 1000 nM and < 100 nM, respectively.

Turning to `Cc1c(N2CCc3cnc(Nc4ccnc(C5CCOCC5)c4)nc3C2)cnc2c1NCCO2` [Example 76, 7-(8-methyl-2,3-dihydro-1H-pyrido[2,3-b][1,4]oxazin-7-yl)-N-(2-(tetrahydro-2H-pyran-4-yl)pyridin-4-yl)-5,6,7,8-tetrahydropyrido[3,4-d]pyrimidin-2-amine], the IC50 in experiment [1] (setting [3]) was < 500 nM; in experiment [2] it was < 100 nM.

`Cc1c(N2CCc3cnc(Nc4ccc(NCCN(C)C)c(F)c4)nc3C2)cnc2c1NCCO2` [Example 1, N1-[2-(dimethylamino)ethyl]-2-fluoro-N4-(7-{8-methyl-1H,2H,3H-pyrido[2,3-b][1,4]oxazin-7-yl}-5H,6H,7H,8H-pyrido[3,4-d]pyrimidin-2-yl)benzene-1,4-diamine]: the IC50 was < 500 nM in experiment [1] (setting [3]) and < 100 nM in experiment [2].

`Cc1cc(Nc2ncc3c(n2)CN(c2cnc4c(c2Cl)NCCO4)CC3)ccc1NC(=O)CN1CCC1` [Example 121, 2-(azetidin-1-yl)-N-(4-((7-(8-chloro-2,3-dihydro-1H-pyrido[2,3-b][1,4]oxazin-7-yl)-5,6,7,8-tetrahydropyrido[3,4-d]pyrimidin-2-yl)amino)-2-methylphenyl)acetamide]: the IC50 in experiment [1] (setting [3]) is < 500 nM; in experiment [2], < 100 nM.

As to `Cc1c(N2CCc3cnc(Nc4cnc5c(c4)CN(CC(F)F)CC5)nc3C2)cnc2c1NCCO2` [Example 105, N-(6-(2,2-difluoroethyl)-5,6,7,8-tetrahydro-1,6-naphthyridin-3-yl)-7-(8-methyl-2,3-dihydro-1H-pyrido[2,3-b][1,4]oxazin-7-yl)-5,6,7,8-tetrahydropyrido[3,4-d]pyrimidin-2-amine], the IC50 is 500 to 1000 nM in experiment [1] (setting [3]) and < 100 nM in experiment [2].

For `Cc1c(N2CCc3cnc(Nc4ccc5c(c4)CS(=O)(=O)C5)nc3C2)cnc2c1NCCO2` [Example 81, 5-((7-(8-methyl-2,3-dihydro-1H-pyrido[2,3-b][1,4]oxazin-7-yl)-5,6,7,8-tetrahydropyrido[3,4-d]pyrimidin-2-yl)amino)-1,3-dihydrobenzo[c]thiophene 2,2-dioxide], the IC50 in experiment [1] (setting [3]) was < 500 nM; in experiment [2], < 100 nM.
